Consider 13 compounds from ChEMBL document CHEMBL5252531, “2015 Philip S. Portoghese Medicinal Chemistry Lectureship. Curing Hepatitis C Virus Infection with Direct-Acting Antiviral Agents: The Arc of a Medicinal Chemistry Triumph” (J Med Chem, 2016).

Data set [1] deals with Hepatitis C virus. As to the kind of experiment: Antiviral activity against HCV genotype 1b. The class given is functional, organism-based, Hepacivirus hominis.
In data set [2] the test system is Hepatitis C virus. As to the kind of experiment: Antiviral activity against HCV genotype 1a. Type of data set: functional, organism-based, Hepacivirus hominis.
Data set [3] is described as follows: Half life in dog liver microsomes. The class given is ADME, Canis lupus familiaris, Microsome.
The target of data set [4] is RNA-directed RNA polymerase (Hepacivirus hominis, UniProt O39930). Kind of data set: Inhibition of Hepatitis C virus NS5B polymerase.
Chain of RNA-directed RNA polymerase (O39930 whole entry): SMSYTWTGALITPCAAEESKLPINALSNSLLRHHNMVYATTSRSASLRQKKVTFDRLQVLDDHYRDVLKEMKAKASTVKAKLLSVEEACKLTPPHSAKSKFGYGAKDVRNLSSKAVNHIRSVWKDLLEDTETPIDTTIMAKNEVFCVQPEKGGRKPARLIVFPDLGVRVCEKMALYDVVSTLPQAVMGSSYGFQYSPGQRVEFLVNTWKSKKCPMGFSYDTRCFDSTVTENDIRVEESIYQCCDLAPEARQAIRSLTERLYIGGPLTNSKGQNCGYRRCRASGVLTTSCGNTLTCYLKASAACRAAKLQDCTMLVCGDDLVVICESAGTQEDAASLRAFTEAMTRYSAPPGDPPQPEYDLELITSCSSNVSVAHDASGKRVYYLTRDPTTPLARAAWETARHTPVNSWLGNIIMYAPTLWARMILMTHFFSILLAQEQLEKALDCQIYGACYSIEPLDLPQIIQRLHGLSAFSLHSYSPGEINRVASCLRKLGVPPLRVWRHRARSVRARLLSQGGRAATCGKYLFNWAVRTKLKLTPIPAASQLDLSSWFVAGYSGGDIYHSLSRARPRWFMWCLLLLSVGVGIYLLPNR
In data set [5] the test system is Hepatitis C virus. As to the kind of experiment: Antiviral activity against HCV genotype 1b Tyr93His mutant. The settings on record: Hepacivirus hominis.
Data set [6] relates to Hepatitis C virus. Kind of data set: Antiviral activity against HCV genotype 1b harboring NS5A Y93H mutant. The class given is functional, organism-based, Hepacivirus hominis.
A short description of data set [7]: Binding affinity to Hepatitis C virus NS3 protease (1027 to 1206 residues) expressed in Escherichia coli assessed as inhibition constant. Also noted: species or system Hepacivirus hominis.
Data set [8] is described as follows: Binding affinity to Hepatitis C virus NS3 assessed as inhibition constant. Also noted: species or system Hepacivirus hominis.
Data set [9] has as its system Hepatitis C virus. As to the kind of experiment: Antiviral activity against HCV GT1b-genotype assessed as viral growth inhibition measured after 24 hrs. Type of data set: functional, organism-based, Hepacivirus hominis. The settings on record: Hepatitis C virus, GT1b-genotype, 24 h.
The test system of data set [10] is Hepatitis C virus. Kind of data set: Antiviral activity against HCV GT1a-genotype assessed as inhibition of viral replication. The class given is functional, organism-based, Hepacivirus hominis.
The target in data set [11] is T1, Hepatitis C virus serine protease, NS3/NS4A (Hepatitis C virus, UniProt A3EZI9+D2K2A8). As to the kind of experiment: Inhibition of Hepatitis C virus NS3/NS4A protease. The class given is protein-complex assay, Hepacivirus hominis.
T1 sequence (D2K2A8 whole entry): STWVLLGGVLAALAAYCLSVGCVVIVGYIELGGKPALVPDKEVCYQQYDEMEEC
T1 sequence (A3EZI9 whole entry): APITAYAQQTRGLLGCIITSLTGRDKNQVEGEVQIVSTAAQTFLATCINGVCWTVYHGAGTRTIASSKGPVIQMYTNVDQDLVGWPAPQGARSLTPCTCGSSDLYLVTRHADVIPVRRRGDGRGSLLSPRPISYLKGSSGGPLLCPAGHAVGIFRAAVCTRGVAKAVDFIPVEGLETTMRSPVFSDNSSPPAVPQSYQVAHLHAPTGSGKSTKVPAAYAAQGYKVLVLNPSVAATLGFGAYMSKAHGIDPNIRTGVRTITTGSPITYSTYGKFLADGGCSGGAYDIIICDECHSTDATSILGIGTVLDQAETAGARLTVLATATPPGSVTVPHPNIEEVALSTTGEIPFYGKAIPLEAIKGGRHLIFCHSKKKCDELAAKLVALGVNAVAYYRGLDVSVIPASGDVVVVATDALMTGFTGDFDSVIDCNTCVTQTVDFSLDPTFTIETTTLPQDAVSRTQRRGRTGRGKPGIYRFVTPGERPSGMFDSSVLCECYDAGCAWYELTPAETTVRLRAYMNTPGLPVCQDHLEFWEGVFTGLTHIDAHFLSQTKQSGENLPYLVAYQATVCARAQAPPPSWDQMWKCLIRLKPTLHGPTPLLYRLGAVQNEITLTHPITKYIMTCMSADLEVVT
The target in data set [12] is T1, Hepatitis C virus serine protease, NS3/NS4A. Kind of data set: Inhibition of HCV NS4A-NS3 protease. The class given is protein-complex assay, Hepacivirus hominis.

pEC50, pIC50, pKi: −log10 of the molar value. Square brackets hold non-standard residues; d marks the D form. Peptide text beside a SMILES is read from it. * marks the point of attachment. Dip = N[C@H](C(=O)O)C(c1ccccc1)c1ccccc1; CH2(1-naphthyl) = c1ccc2c(C*)cccc2c1; Abu(4,4-F2) = N[C@@H](CC(F)F)C(=O)O; Hyp = O=C(O)[C@@H]1C[C@@H](O)CN1; Cha = N[C@@H](CC1CCCCC1)C(=O)O; Chg = N[C@H](C(=O)O)C1CCCCC1; Ac3c = NC1(C(=O)O)CC1

Take `CN(C)[C@@H](C(=O)N1CCC[C@H]1c1ncc(-c2ccc(-c3ccc(-c4cnc([C@@H]5CCCN5C(=O)[C@@H](c5ccccc5)N(C)C)[nH]4)cc3)cc2)[nH]1)c1ccccc1`: the pEC50 in the data set on Hepatitis C virus [1] was 10.38; in the data set with Hepatitis C virus [2], 10.43.

As to `COC(=O)N[C@@H](C(=O)N1CCC[C@H]1c1ncc(-c2ccc(-c3ccc(-c4cnc([C@@H]5CCCN5C(=O)[C@H](NC(=O)OC)c5ccccc5)[nH]4)cc3)cc2)[nH]1)c1ccccc1`, the pEC50 in the data set on Hepatitis C virus [1] is 11.17; in the data set on Hepatitis C virus [2], 10.55.

`C=C[C@@H]1C[C@]1(NC(=O)[C@@H]1C[C@@H](Oc2cc(-c3ccccc3)nc3cc(OC)ccc23)CN1C(=O)[C@@H](NC(=O)OC(C)(C)C)C(C)(C)C)C(=O)NS(=O)(=O)C1CC1` showed a half-life in [3] of 2.83 h.

Take `Cn1c(-c2ccccc2)c(C2CCCCC2)c2ccc(C(=O)O)cc21`: in [4], the pIC50 was 6.92.

Turning to `O=C1N[C@H]2[C@H](CS[C@H]2CCCCC(=O)N2CCC[C@H]2C(=O)Nc2ccc(/C=C/c3ccc(NC(=O)[C@@H]4CCCN4C(=O)Cc4ccccc4)cc3)cc2)N1`, the pEC50 is below 5.00 with Hepatitis C virus [1], 7.48 in the data set on Hepatitis C virus [2] and below 5.00 with Hepatitis C virus [5].

In the data set with Hepatitis C virus [6], `C[C@H](NC(=O)Cc1ccccc1)C(=O)Nc1ccc(C2(O)C(=O)N(Cc3ccco3)C(=S)N2c2cccc(F)c2)cc1` (stereo not given in full) had a pEC50 of 7.37.

For `CC(C)C[C@H](NC(=O)[C@H](CCC(=O)O)NC(=O)OC(C)(C)C)C(=O)NC(CC(F)F)C(=O)C(=O)O` (stereo not given in full), the pKi in data set [7] was 7.57; in [8], 4.77.

For `Fc1cccc(NC(=S)NCc2ccco2)c1`, the pEC50 with Hepatitis C virus [6] is 9.22.

For `COc1ccc2c(c1)[C@@H]1C[C@]1(C(=O)N1C[C@@H](C)O[C@@H](C)C1)Cn1c-2c(C2CCCCC2)c2ccc(C(=O)NS(=O)(=O)N(C)C)cc21`, the pEC50 is 8.52 in the data set on Hepatitis C virus [9] and 9.00 in the data set on Hepatitis C virus [10].

`CC(=O)N[C@@H](CC(=O)O)C(=O)N[C@@H](CCC(=O)O)C(=O)N[C@H](C(=O)N[C@@H](CCC(=O)O)C(=O)N[C@@H](CC1CCCCC1)C(=O)N[C@@H](CC(F)F)C(=O)O)C(c1ccccc1)c1ccccc1` (Ac-DE[Dip]E[Cha][Abu(4,4-F2)]-OH): in data set [11], the pKi is 8.52.

Compound `CC(=O)N[C@H](C(=O)N[C@H](C(=O)N1C[C@H](OCc2cccc3ccccc23)C[C@H]1C(=O)NC1(C(=O)O)CC1)C(C)C)C1CCCCC1` (Ac-[Chg]V[Hyp](CH2(1-naphthyl))[Ac3c]-OH) showed a pIC50 in data set [12] of 5.46.

With `COc1ccc2c(c1)C1CC1(C(=O)N1C3CCC1CN(C)C3)Cn1c-2c(C2CCCCC2)c2ccc(C(=O)NS(=O)(=O)N(C)C)cc21` (racemic), the results for the pEC50 in the data set on Hepatitis C virus [1] and in the data set on Hepatitis C virus [2] were 6.68 and 8.52, respectively.

Consider Ac-DEMEEC-OH, for which, in [8], the pKi is 6.22.
